# Source: ChEMBL document CHEMBL3132769, “Fragment growing to retain or alter the selectivity of anchored kinase hinge-binding fragments” (Medchemcomm, 2014)
# Legend:
# [1] = target: T1, Testis-specific serine/threonine-protein kinase 1 (Homo sapiens) (UniProt Q9BXA7); test: Inhibition of human full length TSSK1 expressed in baculovirus assessed as substrate phosphorylation using fluorescence-labelled peptides as substrate at 0.06 uM after 90 mins by microfluidic peptide phosphorylation assay
# T1 sequence (whole entry): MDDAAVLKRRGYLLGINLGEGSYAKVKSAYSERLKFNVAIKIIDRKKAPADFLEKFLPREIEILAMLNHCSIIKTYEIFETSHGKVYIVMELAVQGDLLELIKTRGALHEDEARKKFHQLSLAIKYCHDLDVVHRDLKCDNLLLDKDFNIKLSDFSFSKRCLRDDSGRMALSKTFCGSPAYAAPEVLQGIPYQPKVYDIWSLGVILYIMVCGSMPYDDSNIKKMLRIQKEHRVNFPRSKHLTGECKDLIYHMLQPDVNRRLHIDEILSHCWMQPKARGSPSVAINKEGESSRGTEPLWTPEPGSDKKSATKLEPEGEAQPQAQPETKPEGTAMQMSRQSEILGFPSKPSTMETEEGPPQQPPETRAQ
# [2] = target: T2, Inhibitor of nuclear factor kappa-B kinase subunit beta (Homo sapiens) (UniProt O14920); test: Inhibition of human full length IKK beta expressed in baculovirus assessed as substrate phosphorylation using fluorescence-labelled peptides as substrate at […] after 90 mins by microfluidic peptide phosphorylation assay
# T2 sequence (whole entry): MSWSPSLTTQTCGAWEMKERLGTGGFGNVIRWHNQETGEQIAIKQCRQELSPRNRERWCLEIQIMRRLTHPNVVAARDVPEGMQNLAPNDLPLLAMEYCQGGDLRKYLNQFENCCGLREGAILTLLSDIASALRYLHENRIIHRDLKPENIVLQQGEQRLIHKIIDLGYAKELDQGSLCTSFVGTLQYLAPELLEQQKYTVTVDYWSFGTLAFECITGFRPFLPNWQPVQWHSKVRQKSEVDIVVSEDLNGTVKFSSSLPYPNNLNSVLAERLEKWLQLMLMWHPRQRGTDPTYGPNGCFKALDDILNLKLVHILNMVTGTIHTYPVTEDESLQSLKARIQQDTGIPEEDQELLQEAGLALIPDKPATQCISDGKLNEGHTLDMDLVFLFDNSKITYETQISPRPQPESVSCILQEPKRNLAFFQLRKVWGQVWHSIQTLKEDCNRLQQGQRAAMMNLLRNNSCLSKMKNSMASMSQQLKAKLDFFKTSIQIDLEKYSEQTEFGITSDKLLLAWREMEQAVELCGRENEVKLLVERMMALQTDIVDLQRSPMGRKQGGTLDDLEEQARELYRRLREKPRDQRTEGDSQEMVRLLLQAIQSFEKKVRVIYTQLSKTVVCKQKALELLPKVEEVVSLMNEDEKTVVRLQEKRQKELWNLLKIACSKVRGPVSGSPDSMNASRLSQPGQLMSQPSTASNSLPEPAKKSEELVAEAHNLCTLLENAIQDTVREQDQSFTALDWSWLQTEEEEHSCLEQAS
# [3] = target: T3, Serine/threonine-protein kinase D1 (Homo sapiens) (UniProt Q15139); test: Inhibition of human full length PKD1 expressed in baculovirus assessed as substrate phosphorylation using fluorescence-labelled peptides as substrate at 8 uM after 90 mins by microfluidic peptide phosphorylation assay
# T3 sequence (whole entry): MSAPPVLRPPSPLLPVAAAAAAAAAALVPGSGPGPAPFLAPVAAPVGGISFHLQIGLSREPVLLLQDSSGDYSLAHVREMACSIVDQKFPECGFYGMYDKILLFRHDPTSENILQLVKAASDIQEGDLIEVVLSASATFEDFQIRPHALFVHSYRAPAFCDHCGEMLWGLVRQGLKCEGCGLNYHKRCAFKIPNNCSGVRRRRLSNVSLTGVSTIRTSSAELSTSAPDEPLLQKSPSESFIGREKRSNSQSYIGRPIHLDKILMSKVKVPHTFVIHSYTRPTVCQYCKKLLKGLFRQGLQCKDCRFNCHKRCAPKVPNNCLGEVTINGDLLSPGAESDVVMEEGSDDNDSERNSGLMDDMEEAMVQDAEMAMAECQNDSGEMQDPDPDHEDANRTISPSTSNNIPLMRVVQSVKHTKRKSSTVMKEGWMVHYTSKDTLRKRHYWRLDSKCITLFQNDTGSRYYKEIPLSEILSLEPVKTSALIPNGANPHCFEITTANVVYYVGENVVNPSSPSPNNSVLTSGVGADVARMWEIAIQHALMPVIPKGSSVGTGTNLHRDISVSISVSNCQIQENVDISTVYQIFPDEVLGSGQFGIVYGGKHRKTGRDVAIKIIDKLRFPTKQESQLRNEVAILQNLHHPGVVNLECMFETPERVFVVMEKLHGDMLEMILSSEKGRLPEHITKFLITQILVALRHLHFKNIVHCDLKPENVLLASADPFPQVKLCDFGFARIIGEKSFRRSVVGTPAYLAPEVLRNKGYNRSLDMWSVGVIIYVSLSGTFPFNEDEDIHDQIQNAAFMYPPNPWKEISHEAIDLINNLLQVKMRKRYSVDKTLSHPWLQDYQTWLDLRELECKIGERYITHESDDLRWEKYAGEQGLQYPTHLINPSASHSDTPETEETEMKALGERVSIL
# [4] = target: T4, Serine/threonine-protein kinase Sgk2 (Homo sapiens) (UniProt Q9HBY8); test: Inhibition of human full length SGK2 expressed in baculovirus assessed as substrate phosphorylation using fluorescence-labelled peptides as substrate at 8 uM after 90 mins by microfluidic peptide phosphorylation assay
# T4 sequence (whole entry): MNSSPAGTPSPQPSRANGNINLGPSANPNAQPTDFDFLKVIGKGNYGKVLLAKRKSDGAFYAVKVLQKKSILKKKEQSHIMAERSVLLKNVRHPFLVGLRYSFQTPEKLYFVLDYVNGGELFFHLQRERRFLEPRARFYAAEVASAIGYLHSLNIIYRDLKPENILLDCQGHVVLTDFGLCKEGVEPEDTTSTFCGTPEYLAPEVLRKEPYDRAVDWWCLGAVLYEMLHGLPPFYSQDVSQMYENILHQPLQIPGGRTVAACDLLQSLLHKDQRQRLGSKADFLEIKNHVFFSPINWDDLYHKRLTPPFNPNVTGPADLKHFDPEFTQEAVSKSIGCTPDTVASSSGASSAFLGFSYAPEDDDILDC
compound,measurement,setting,value
NC1(Cc2ccc(Cl)cc2)CCN(c2ncnc3[nH]ccc23)CC1,inhibition,[1],0%
COC(=O)c1cnc(Nc2cnc(C#N)cn2)cc1NCC1CCNCC1,inhibition,[2],2%
NCC1CCN(c2ncnc3[nH]ccc23)CC1,inhibition,[3],75.5%
same,inhibition,[4],69%
